Data published in patent US12263155B2, “Combinations of monoamine oxidase inhibitors and serotonin receptor agonists and their therapeutic use” (Remedi, Inc., priority 2022, dated 2025).

Columns and labels:
[1] = molecular target: T1, rat brain MAO-A (Rattus norvegicus, UniProt P21396); assay: In vitro inhibition of rat brain MAO-A; assay type: biochemical
T1 construct: prepared from brain homogenates of male Sprague-Dawley rats, served as the source of MAO-A enzymatic activity; from tissue
T1 sequence (P21396 1-526): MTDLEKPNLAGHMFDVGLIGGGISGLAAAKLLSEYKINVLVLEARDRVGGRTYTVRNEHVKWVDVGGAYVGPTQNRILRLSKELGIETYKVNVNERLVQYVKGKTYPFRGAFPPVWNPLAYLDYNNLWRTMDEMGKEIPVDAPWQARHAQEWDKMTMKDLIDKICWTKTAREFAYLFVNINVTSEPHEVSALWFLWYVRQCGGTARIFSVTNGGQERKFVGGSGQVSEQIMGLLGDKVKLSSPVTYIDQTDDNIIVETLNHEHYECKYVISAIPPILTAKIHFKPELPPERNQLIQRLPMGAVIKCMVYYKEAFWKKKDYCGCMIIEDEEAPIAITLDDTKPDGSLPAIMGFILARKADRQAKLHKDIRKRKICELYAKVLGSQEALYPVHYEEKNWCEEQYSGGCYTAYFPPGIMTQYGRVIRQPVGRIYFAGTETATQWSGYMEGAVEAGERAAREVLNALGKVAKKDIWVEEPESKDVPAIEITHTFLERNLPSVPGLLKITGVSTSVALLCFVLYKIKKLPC
Method: Methods: The soluble extract of the mitochondrial enriched fraction (P2 pellet), which was prepared from brain homogenates of male Sprague-Dawley rats, served as the source of MAO-A enzymatic activity. The P2 fraction was prepared and was stored frozen until being thawed for use on the day of assay. Final concentrations of 50 μM [^14C]-serotonin (5-HT) and 10 μM [^14C]-phenylethylamine (PEA) were employed as specific substrates for MAO-A and MAO-B, respectively. Test compound inhibition was based on competition for oxidation of these radio-labeled substrates. MAO-A assay specificity was enhanced by inclusion of 0.1 μM deprenyl to prevent substrate oxidation by MAO-B. Likewise, MAO-B assays included 0.1 μM clorgyline to block MAO-A activity. […] Inhibition of enzymatic activities was expressed as IC50 and as the Ki, which was calculated using the Cheng-Prusoff equation.

[2] = Exemplary administration of CX157, DMT and combinations: subjective effects; assay type: in vivo; settings: 175 mg CX157 alone
Method: Administration Example 1: Subjects are administered 175 mg CX157 alone.
Administration Example 2: Subjects are administered 25 mg, 37.5 mg, 50 mg, 75 mg, or 100 mg DMT freebase in a capsule.
Administration Example 3: Subjects are administered 175 mg CX157, and then from between 2-3 hours later, such as at 2 hours 40 minutes later, a dose of 0.03 mg/kg, 0.05 mg/kg, or 0.07 mg/kg DMT freebase in capsule. Alternatively, subjects are administered a capsule containing 2.5 mg, 3.75 mg, 5 mg, 7.5 mg, 10 mg, 12.5 mg, 15 mg, 17.5 mg, or 20 mg DMT freebase.
Administration Example 4: Subjects are administered 175 mg CX157, and then from between 2-3 hours later, such as at 2 hours 15 minutes later, a dose of 0.2 mg/kg, 0.4 mg/kg, or 0.6 mg/kg DMT freebase in capsule. Alternatively, subjects are administered a capsule containing 25 mg, 37.5 mg, 50 mg, 75 mg, 100 mg, 125 mg, 150 mg, 175 mg, or 200 mg DMT freebase. At lower doses of DMT, subjects report effects that are relaxing, comforting, and “warm,” and describe mildly mood-elevating and anxiolytic properties. […]

[3] = molecular target: T2, Oxidase MAO-A Peripheral (Rattus norvegicus, UniProt P21396); assay: NovaScreen ligand-binding screen, MAO-A
T2 construct: purchased NovaScreen
T2 sequence (P21396 1-526): T1 sequence (P21396 1-526)
Method: Methods: Investigational drug candidates CX157 were analyzed in NovaScreen's bank of ligand-binding reactions to test for specificity. CX157 was screened at concentrations of both 10.0 nM and 100 nM as potential competitors in binding reactions involving nine classes containing 69 binding sites. The following binding reactions are tested: Adenosine Non-selective, Adrenergic Alpha 1 Non-selective, Adrenergic Alpha 2 Non-selective, Adrenergic Beta Non-selective, Dopamine Transporter, Dopamine Non-selective, GABA A Agonist Site, GABA A BDZ alpha 1 site, GABA B, Glutamate AMPA Site (Ionotropic), Glutamate Kainate Site (Ionotropic), Glutamate NMDA Agonist Site (Ionotropic), Glutamate NMDA Glycine (Stry-insens Site) (Ionotrophic), Glycine Strychnine-sensitive, Histamine H1, Histamine H2, Histamine H3, Melatonin Non-selective, Muscarinic M1 (hr), Muscarinic M2 (hr), Muscarinic Non-selective Central, Muscarinic Non-selective Peripheral, Nicotinic (α-BnTx insensitive) Neuronal, Norepinephrine Transporter, Opioid Non-selective, Orphanin (hr), Serotonin Transporter, Serotonin Non-selective, Sigma Non-selective, Estrogen, Testosterone (cytosolic), Calcium Channel Type L (Dihydropyridine Site), Calcium Channel Type N, Potassium Channel ATP-Sensitive, Potassium Channel Ca2+ Act. VI, Potassium Channel I[Kr]

Compound: O=S1(=O)c2ccc(F)cc2Oc2cc(OCC(F)(F)F)ccc21 [CX157, 3-fluoro-7(2,2,2-trifluorethoxy)phenoxathiine-10,10-dioxide]
- Ki for CX157/Ki for RO-41-1049 ([1]; Brain MAO-A): 0.006
- Ki fold lower than reference compound RO 41-1049 ([1]; rat brain MAO-A): > 10 fold
- IC50 ([1]; rat brain P2 extract, 50 μM [14C]-5-HT): 0.09 nM
- Ki ([1]; rat brain, Cheng-Prusoff): 0.09 nM
- antidepressant activity [2]: no significant antidepressant activity
- reduction of [14C]-5-HT binding ([3]; 10.0 nM CX157): 63.4%
- reduction of [14C]-5-HT binding ([3]; 100 nM CX157): 100.6%
- Kd ([3]; read-out: Kd, competition for [14C]-serotonin (5-HT) binding): 8.7 nM
